The text below walks through data of patent EP4800018A1, “PAN-KRAS INHIBITOR AND USE THEREOF IN MEDICINES” (Betta Pharmaceuticals Co., Ltd., priority 2023, dated 2025).

Read-outs that look alike come from different tables or passages of the source.

Holding throughout (assay type): cell-based
Assay [1] concerns KRAS-G12D mutant tumor cells AGS. In words: Cell Proliferation Inhibition Assay (AGS), Cell-titer GLO, 96 h. Particulars: AGS cells, 96 h incubation, Cell-titer GLO, read-out: AGS(G12D). An outline of the steps: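 AGS cells (KRAS-G12D) grown in low-attachment plates were exposed to compound for 96 h at 37°C. Viability was read by CellTiter-Glo luminescence and converted to % inhibition against max and blank wells. IC50 came from curve fitting.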

Assay [2] has as its system KRAS-G12V mutant tumor cells SW620. In words: Cell Proliferation Inhibition Assay (SW620), Cell-titer GLO, 96 h. The following applies: SW620 cells, 96 h incubation, Cell-titer GLO, read-out: SW620(G12V). An outline of the steps:
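SW620 cells (1×10^3/well, low-attachment) were exposed to compound from 10000 to 0.03 nM (0.5% DMSO) for 96 h at 37°C. Viability was read by Cell-titer GLO luminescence. Inhibition was calculated relative to DMSO and blank wells, and IC50 obtained by curve fitting.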

A further assay addresses T1, KRAS G12D-cRAF (Homo sapiens, UniProt P01116, G12D).
T1 construct: expressed in transfected cells
In words: Cellular KRAS G12D-cRAF Binding Inhibition Assay (NanoBRET, AD293 stable cells). The following applies: 3 h incubation, read-out: NanoBRET KRAS G12D. An outline of the steps: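 AD293 cells stably expressing KRAS G12D-NanoLuc and cRAF RBD-HaloTag were seeded at 1×10^4 cells/well with NanoBRET 618 ligand overnight. BRET signal was converted to % inhibition of binding relative to max and blank wells, and IC50 came from curve fitting.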
(In general: In BRET a luciferase serves as donor, and the signal depends on an acceptor being close.)

The target of another assay is T2, KRAS G12V-cRAF (Homo sapiens, UniProt P01116, G12V).
T2 construct: expressed in transfected cells
T2 sequence (P01116 1-188 isoform P01116-2 G12V): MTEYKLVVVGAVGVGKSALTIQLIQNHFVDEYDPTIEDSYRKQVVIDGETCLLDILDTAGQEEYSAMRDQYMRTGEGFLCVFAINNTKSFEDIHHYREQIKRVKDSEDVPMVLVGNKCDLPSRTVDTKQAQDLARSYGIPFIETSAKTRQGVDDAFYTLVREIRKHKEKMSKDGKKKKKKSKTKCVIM
In words: Cellular KRAS G12V-cRAF Binding Inhibition Assay (NanoBRET, AD293 stable cells). The following applies: 3 h incubation, read-out: NanoBRET KRAS G12V. An outline of the steps:
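Live AD293 stable cells, NanoLuc donor with HaloTag NanoBRET 618 ligand acceptor added overnight. Inhibition percent from luminescence relative to max signal and medium blank; IC50 from curve fitting.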

T1 sequence (P01116 1-188 isoform P01116-2 G12D): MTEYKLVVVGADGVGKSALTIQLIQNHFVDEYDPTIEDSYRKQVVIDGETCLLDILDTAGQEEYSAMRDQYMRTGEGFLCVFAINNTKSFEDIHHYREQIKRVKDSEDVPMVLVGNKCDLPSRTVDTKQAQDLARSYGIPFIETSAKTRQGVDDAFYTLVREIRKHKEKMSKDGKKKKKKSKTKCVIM

As to `CC1OCCCn2c(c3c4cc(ccc42)-c2coc(n2)CC(NC(=O)C2CC2C(F)F)C(=O)N2CCCC(N2)C(=O)OCC(C)(C)C3)-c2cc(N3CCOCC3)cnc21` [Example 146, (1S,2S)-2-(difluoromethyl)-N-((1^5S,6^3S,4S,Z)-1^5,10,10-trimethyl-1^2-morpholino-5,7-dioxo-1^8,1^9, 6^1,6^2,6^3,6^4,6^5 6-octahydro-1^5H,1^7H-8-oxa-1(13,15)-pyrido[3',2':7,8][1,5]oxazonino[5,6-a]indola-2(4,2)-oxazola-6(1,3)-pyridazinacycloundecaphane-4-yl)cyclopropane-1-carboxamide], the IC50 came to 1.4 nM in assay [1] (Homo sapiens, AGS, 96 h); 0.6 nM in assay [2] (Homo sapiens, SW-620, 96 h); 1.97 nM at KRAS G12D-cRAF; 8.52 nM on KRAS G12V-cRAF.

In the case of `CCN1CCN(c2cnc3c(c2)-c2c4c5cc(ccc5n2CCCOC3C)-c2csc(n2)CC(NC(=O)C(C(C)C)N(C)C(=O)N2CCOCC2)C(=O)N2CCCC(N2)C(=O)OCC(C)(C)C4)CC1` [Example 149, N-((2S)-1-(((1^5S,6^3S,4S,Z)-1^2-(4-ethylpiperazin-1-yl)-1^5,10,10-trimethyl-5,7-dioxo-1^8,1^9,6^1,6^2,6^3 ,6^4,6^5,6^6-octahydro-1^5H,1^7H-8-oxa-1(13,15)-pyrido[3',2':7,8][1,5]oxazonino[5,6-a]indola-2(4,2)-thiazola-6(1,3)-pyridazinacycloundecaphane-4-yl)amino)-3-methyl-1-oxobutan-2-yl)-N-methyl morpholine-4-carboxamide], the IC50 in assay [1] (Homo sapiens, AGS, 96 h) amounted to 3.19 nM; in assay [2] (Homo sapiens, SW-620, 96 h) it was 1.09 nM; on KRAS G12D-cRAF it was 3.48 nM; at KRAS G12V-cRAF, 10.9 nM.

With `CC1OCCCn2c(c3c4cc(ccc42)-c2csc(n2)CC(NC(=O)C2CC2C(F)F)C(=O)N2CCCC(N2)C(=O)OCC(C)(C)C3)-c2cc(N3CC4CCC3CN4C)cnc21` [Example 154, (1S,2S)-2-(difluoromethyl)-N-((1^5S,6^3S,4S,Z)-1^5,10,10-trimethyl-1^2-(5-methyl-2,5-diazabicyclo[2.2.2]octan-2-yl)-5,7-dioxo-1^8,1^9,6^1,6^2,6^3,6^4,6^5,6^6-octahydro-1^5H,1^7H-8-oxa-1(13,15)-pyrido[3',2 ':7,8][1,5]oxazonino[5,6-a]indola-2(4,2)-thiazola-6(1,3)-pyridazinacycloundecaphane-4-yl)cyclo propane-1-carboxamide], the IC50 in assay [1] (Homo sapiens, AGS, 96 h) was 1.95 nM; in assay [2] (Homo sapiens, SW-620, 96 h) it was 0.91 nM; at KRAS G12D-cRAF, 4.2 nM; at KRAS G12V-cRAF, 19.3 nM.

`CC1OCCCn2c(c3c4cc(ccc42)-c2csc(n2)CC(NC(=O)C2C(C)C2C)C(=O)N2CCCC(N2)C(=O)OCC(C)(C)C3)-c2cc(OCCN3CCOCC3)cnc21` [Example 158, (1r,2R,3S)-2,3-dimethyl-N-((1^5S,6^3S,4S,Z)-1^5,10,10-trimethyl-1^2-(2-morpholinoethoxy)-5,7-dioxo-1^8,1^9,6^1,6^26^3,6^4,6^5,6^6-octahydro-1^5H,1^7H-8-oxa-1(13,15)-pyrido[3',2':7,8][1,5]oxazonino[5,6-a]indola-2(4,2)-thiazola-6(1,3)-pyridazinacycloundecaphane-4-yl)cyclopropane-1-carboxamide]: the IC50 in assay [1] (Homo sapiens, AGS, 96 h) came out at 0.58 nM; in assay [2] (Homo sapiens, SW-620, 96 h), 0.11 nM; on KRAS G12D-cRAF it was 1.01 nM; on KRAS G12V-cRAF, 5.06 nM.

Consider `CCN1CCN(c2cnc3c(c2)-c2c4c5cc(ccc5n2CCCOC3C)-c2csc(n2)CC(NC(=O)C2C(C)C2C)C(=O)N2CCCC(N2)C(=O)OCC(C)(C)C4)CC1` [Example 159, (1r,2R,3S)-N-((1^5S,6^3S,4S,Z)-1^2-(4-ethylpiperazin-1-yl)-1^5,10,10-trimethyl-5,7-dioxo-1^8,1^9,6^1,6^2 ,6^3,6^4,6^5,6^6-octahydro-1^5H,1^7H-8-oxa-1(13,15)-pyrido[3',2':7,8][1,5]oxazonino[5,6-a]indola-2(4, 2)-thiazola-6(1,3)-pyridazinacycloundecaphane-4-yl)-2,3-dimethylcyclopropane-1-carboxamide], for which the IC50 in assay [1] (Homo sapiens, AGS, 96 h) is 0.21 nM; in assay [2] (Homo sapiens, SW-620, 96 h) it was 0.06 nM; on KRAS G12D-cRAF, 0.38 nM; at KRAS G12V-cRAF, 3.83 nM.

For the compound `CCN1CCN(c2cnc3c(c2)-c2c4c5cc(ccc5n2CC(C)COC3C)-c2csc(n2)CC(NC(=O)C2CC2C(F)F)C(=O)N2CCCC(N2)C(=O)OCC(C)(C)C4)CC1` [Example 161, (1S,2S)-2-(difluoromethyl)-N-((1^5S,1^8R,6^3S,4S,Z)-1^2-(4-ethylpiperazin-1-yl)-1^5,1^8,10,10-tetramethyl-5,7-dioxo-1^8,1^9,6^1,6^2,6^3,6^4,6^5,6^6-octahydro-1^5H,1^7H-8-oxa-1(13,15)-pyrido[3',2':7,8][1,5]oxazonino[5,6-a]indola-2(4,2)-thiazola-6(1,3)-pyridazinacycloundecaphane-4-yl)cyclopropane-1-c arboxamide], the IC50 was found to be 0.71 nM in assay [1] (Homo sapiens, AGS, 96 h); 0.24 nM in assay [2] (Homo sapiens, SW-620, 96 h); 0.92 nM on KRAS G12D-cRAF; 4.52 nM at KRAS G12V-cRAF.

Turning to `CC1OCCCn2c(c3c4cc(ccc42)-c2csc(n2)CC(NC(=O)C2C(C)C2C)C(=O)N2CCCC(N2)C(=O)OCC(C)(C)C3)-c2cc(N3CC(C)N(C)C(C)C3)cnc21` [Example 165, (1r,2R,3S)-2,3-dimethyl-N-((1^5S,6^3S,4S,Z)-1^5,10,10-trimethyl-5,7-dioxo-1^2-((3S,5R)-3,4,5-trimethylpiperazin-1-yl)-1^8,1^9,6^1,6^2,6^3,6^4,6^5,6^6-octahydro-1^5H,1^7H-8-oxa-1(13,15)-pyrido[3',2':7,8][1, 5]oxazonino[5,6-a]indola-2(4,2)-thiazola-6(1,3)-pyridazinacycloundecaphane-4-yl)cyclopropane-1-carboxamide], the IC50 in assay [1] (Homo sapiens, AGS, 96 h) was 0.19 nM; in assay [2] (Homo sapiens, SW-620, 96 h), 0.05 nM; on KRAS G12D-cRAF, 0.76 nM; on KRAS G12V-cRAF, 3.8 nM.

`CC1OCCCn2c(c3c4cc(ccc42)-c2csc(n2)CC(NC(=O)C2C(C)C2C)C(=O)N2CCCC(N2)C(=O)OCC(C)(C)C3)-c2cc(N3CC(C)N(C)C(C)C3)cnc21` [Example 171, (1r,2R,3S)-2,3-dimethyl-N-((1^5S,6^3S,4S,Z)-15,10,10-trimethyl-5,7-dioxo-1^2-((3S,5S)-3,4,5-trimethylpiperazin-1-yl)-1^8,1^9,6^1,6^2,6^3,6^4,6^5,6^6-octahydro-1^5H,1^7H-8-oxa-1(13,15)-pyrido[3',2':7,8][1, 5]oxazonino[5,6-a]indola-2(4,2)-thiazola-6(1,3)-pyridazinacycloundecaphane-4-yl)cyclopropane-1-carboxamide]: the IC50 in assay [1] is 0.11 nM; in assay [2], 0.04 nM; on KRAS G12D-cRAF, 0.24 nM; on KRAS G12V-cRAF it was 3.04 nM.

As to `CC1OCCCn2c(c3c4cc(ccc42)-c2csc(n2)CC(NC(=O)C24CC(C)(C2)C4)C(=O)N2CCCC(N2)C(=O)OCC(C)(C)C3)-c2cc(N3CC(C)N(C)C(C)C3)cnc21` [Example 172, 3-methyl-N-((1^5S,6^3S,4S,Z)-1^5,10,10-trimethyl-5,7-dioxo-1^2-((3S,5S)-3,4,5-trimethylpiperazin-1-y)-1^8,1^9,6^1,6^2,6^3,6^4,6^5,6^6-octahydro-1^5H,1^7H-8-oxa-1(13,15)-pyrido[3',2':7,8][1,5]oxazonino[5,6-a]indola-2(4,2)-thiazola-6(1,3)-pyridazinacycloundecaphane-4-yl)bicyclo[1.1.1]pentane-1-carb oxamide], the IC50 in assay [1] (Homo sapiens, AGS, 96 h) stood at 1.1 nM; in assay [2] (Homo sapiens, SW-620, 96 h) it was 0.32 nM; on KRAS G12D-cRAF, 2.02 nM; on KRAS G12V-cRAF it was 6.7 nM.

As to `CC1OCCCn2c(c3c4cc(ccc42)-c2csc(n2)CC(NC(=O)C2CC2C)C(=O)N2NC(C(=O)OCC(C)(C)C3)C3CC2C3)-c2cc(N3CCN(C)CC3)cnc21` [Example 183, (1S,2S)-2-methyl-N-((1^5S,6^4S,4S,Z)-1^5,10,10-trimethyl-1^2-(4-methylpiperazin-1-yl)-5,7-dioxo-1 ^8,1^9-dihydro-1^5H,1^7H-8-oxa-6^2,6^3-diaza-1(13,15)-pyrido[3',2':7,8][1,5]oxazonino[5,6-a]indola-2(4,2)-thiazola-6(2,4)-bicyclo[3.1.1]heptanacycloundecaphane-4-yl)cyclopropane-1-carboxamide], the IC50 in assay [1] (Homo sapiens, AGS, 96 h) is 2 nM; in assay [2] (Homo sapiens, SW-620, 96 h) it was 0.6 nM; on KRAS G12D-cRAF it was 2.7 nM; at KRAS G12V-cRAF, 17.6 nM.

In the case of `CC1OCCCn2c(c3c4cc(ccc42)-c2csc(n2)CC(NC(=O)C2C(C)C2C)C(=O)N2CCCC(N2)C(=O)OCC(C)(C)C3)-c2cc(CN3CCN(C)CC3)cnc21` [Example 193, (1r,2R,3S)-2,3-dimethyl-N-((1^5S,6^3S,4S,Z)-1^5,10,10-trimethyl-1^2-((4-methylpiperazin-1-yl)methyl)-5,7-dioxo-1^8,1^9,6^1,6^2,6^3,6^4,6^5,6^6-octahydro-1^5H,1^7H-8-oxa-1(13,15)-pyrido[3',2':7,8][1,5]oxazonino[5,6-a]indola-2(4,2)-thiazola-6(1,3)-pyridazinacycloundecaphane-4-yl)cyclopropane-1-car boxamide], the IC50 in assay [1] (Homo sapiens, AGS, 96 h) amounted to 0.9 nM; in assay [2] (Homo sapiens, SW-620, 96 h), 0.2 nM; on KRAS G12D-cRAF, 1.2 nM; on KRAS G12V-cRAF, 27.1 nM.
